Data: paper PMC2932756 (Chemico-biological interactions, 2010)

Assays:
tyrosinase = experiment: Tyrosinase mediated GSH depletion assay; format: biochemical, Mushroom; details: 100 μM phenolic agent, 200 μM GSH, tyrosinase/O2, 37 °C, 2 h
SK-MEL-28 melanoma cells = experiment: MTT cell viability assay, IC50; format: cell-based, human; details: MTT assay, 48 h incubation
[1] = test system: CYP2E1 induced rat liver microsomes; details: 100 μM, pH 7.4
isolated rat hepatocytes = details: trypan blue exclusion, 2 h incubation; cited from earlier work

Microsomes GSH depletion (2 h) [1]	Compound	Tyrosinase GSH depletion (2 h) (tyrosinase)	LD50 (day 2) SK-MEL-28 (SK-MEL-28 melanoma cells)	LD50 (2 h) rat hepatocytes (isolated rat hepatocytes)
	O=C(/C=C/c1ccc(O)c(O)c1)O[C@@H]1C[C@](O)(C(=O)O)C[C@@H](O)[C@H]1O [CGA, chlorogenic acid]	200±5%	>5 mM	
110±7%	O=C(O)/C=C/c1ccccc1 [CinA, cinnamic acid]	40±7%		
	O=C(O)CCc1ccc(O)c(O)c1 [DHCA, dihydrocaffeic acid]	200±4%	2.2 mM	6 mM
	O=C(O)CCc1ccccc1 [DHCinA, Dihydrocinnamic acid]	32±3%	5 mM	
	ferulic acid [FA]	46±2%	2 mM	25 mM
